According to patent US20150315179A1, “COMPOUNDS AND METHODS OF TREATING NEUROLOGICAL DISORDERS” (Torrey Pines Institute For Molecular Studies, priority 2014, published 2015):

What was measured:
[1] = test system: sAPPα in supernatants of 7WD10 cells; test: Western blot sAPPα release assay, 7WD10 cells; type: cell-based
Experimental: (2). To ascertain that hits identified as a result of AlphaLISA assay are not due to artifacts of the detection system, the sAPPα levels were measured by Western blots as a secondary assay downstream of primary HTS to confirm hits or discard artifacts of the AlphaLISA assay. The assay was performed using a range of concentrations of hit compounds (10-5,000 nM). A hit compound named thiazole piperazine #244 (THPI-244) and THPI-326 induced dose-dependent increase of sAPPα in supernatants of 7WD10 cells (FIG. 1.3). […] Since compound THPI-244 increased sAPPα levels more than THPI-326, we focused on THPI-244 for further validation.
Western blot sAPPα release assay. 7WD10 cells were grown in 6-well plates and treated with test compounds and SAHA (vorinostat) at several concentrations in duplicate wells. After 24 h of drug exposure, the conditioned media (CM) was collected, centrifuged to remove cell debris and subjected to SDS-PAGE electrophoresis. sAPPα (6E10, mouse IgG from IBL America ltd) was detected using indicated antibody. To detect APP-FL holoprotein and C-terminal fragments (CTFs, CT15 antibody), the cells were lysed using lysis buffer (1% NP40) with complete protease inhibitor mix (Sigma) supplemented with sodium vanadate and microcystine. Samples were subjected to SDS-PAGE, transferred and immunoblotted with indicated antibodies and detected by enhanced chemiluminescence method. Quantification of Western blot signals was done using ImageJ software.

TrkA receptors = TrkA receptors (Homo sapiens, UniProt P04629); test: Octet Red label-free binding; details: biotinylated TrkA on SSA biosensors
Chain of TrkA receptors (P04629 33-796): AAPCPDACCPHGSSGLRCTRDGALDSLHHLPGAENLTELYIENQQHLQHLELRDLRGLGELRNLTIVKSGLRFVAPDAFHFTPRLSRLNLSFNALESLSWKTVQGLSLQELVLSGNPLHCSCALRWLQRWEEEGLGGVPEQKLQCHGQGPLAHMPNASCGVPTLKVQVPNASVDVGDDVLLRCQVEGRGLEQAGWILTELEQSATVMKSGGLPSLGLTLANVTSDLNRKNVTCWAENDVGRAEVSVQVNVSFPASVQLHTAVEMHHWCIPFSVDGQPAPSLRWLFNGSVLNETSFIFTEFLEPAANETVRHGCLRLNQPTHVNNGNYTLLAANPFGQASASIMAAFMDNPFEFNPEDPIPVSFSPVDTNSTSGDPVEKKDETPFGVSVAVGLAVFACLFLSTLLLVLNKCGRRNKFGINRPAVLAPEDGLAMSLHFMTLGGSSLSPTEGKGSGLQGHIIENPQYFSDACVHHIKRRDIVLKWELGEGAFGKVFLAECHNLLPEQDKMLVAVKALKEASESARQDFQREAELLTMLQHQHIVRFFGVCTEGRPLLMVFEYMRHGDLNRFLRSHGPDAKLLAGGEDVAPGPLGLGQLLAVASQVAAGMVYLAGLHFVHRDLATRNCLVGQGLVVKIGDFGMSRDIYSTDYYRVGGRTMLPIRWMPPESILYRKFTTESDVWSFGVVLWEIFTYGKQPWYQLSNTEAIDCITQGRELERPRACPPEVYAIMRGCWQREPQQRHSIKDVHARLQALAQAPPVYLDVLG
Experimental: FIGS. 9.1A and B illustrate that THPI-244 directly binds TrkA receptors as determined by label-free, real-time Octet Red detection system. FIG. 9.1A illustrates that biotinylated TrkA was loaded on to super-streptavidin (SSA) biosensors and after obtaining the baseline, were incubated with THPI-244 which dose-dependently bound TrkA receptors (Association). Incubation with kinetics buffer rapidly dissociated the binding.

sAPPα = sAPPα increasing activity of THPI-244 analogs; type: cell-based
Excerpt: The following table illustrates Chemical structures and properties of THPI-244 analogs selected out of 37 analogs, and each have significant sAPPα increasing activity. Toxicity is the minimum dose for toxicity.

TrkA = test: Mouse brain lysate immunoblot, TrkA; type: in vivo; details: i.p. 100 mg/kg for 5 days, brain lysates
Experimental: FIGS. 9.2A and B illustrate that THPI-244 increases TrkA and sAPPα in the mouse brain. FIG. 9.2A illustrates that THPI-244 was administered to mice by i.p. injections at 100 mg/kg body weight for 5 days and the brain lysates were subjected to immunoblots. Specific antibodies were used to detect TrkA and sAPPα. […] Data are mean±SEM, n=3*, p<0.05, ***, p<0.001.

[2] = test system: sAPPα release, NT2 cells stably expressing human APP751; test: sAPPα ELISA, NT2 cells expressing APP751; type: cell-based; details: 24 h
Experimental: (5). To confirm the effect of THPI-244 on sAPPα levels in a neuronal cell line and by a tertiary assay, we exposed human Neuron-committed Teratocarcinoma cell line (NT2) stably expressing human APP751 to different concentrations of THPI-244 for 24 h and compared with that of Bryostatin, a classical activator of PKC known to stimulate sAPPα release. […] Levels of sAPPα were measured by ELISA using commercially available kit (cat #27734, IBL-America, Minneapolis, Minn., USA). […] Similar biphasic effect of Bryostatin was confirmed for Aβ42 also, measured again in NT2 stable cells by ELISA (cat # KHB3441, Life Technologies, Grand Island, N.Y., USA). Consistent with sAPPα, THPI-244 decreased Aβ42 levels dose-dependently starting from 50 nM (28%, p<0.05) to 2000 nM (64%, p<0.001) (n=4 independent experiments) (FIG. 1.7). Thus THPI-244 increased non-amyloidogenic processing of APP in NT2 cells.

[3] = test system: sAPPα release from 7WD10 cells; test: AlphaLISA sAPPα release assay (pilot screen); type: cell-based; details: 5 μM, 7WD10 cells, 24 h
Experimental: Pilot screen of AlphaLISA sAPPα release assay. 8 μL of assay media (DMEM supplemented with 10% FBS and 1× Penicillin/Streptomycin) containing 20,000 cells were added to all wells of the assay plate, except column 1 where only media was added. Plates were incubated for 4 h at 37° C., 5% CO2, 95% RH after which 80 nL of test compounds in DMSO or DMSO alone were added to respective wells using a pin tool device (VP Scientific, San Diego). After 24 h of incubation at 37° C., 5% CO2, 95% RH, sAPPα AlphaLISA beads were added in 10 μL of buffer, equilibrated for 1 h, and AlphaLISA signal was measured using a Biotek H4 Synergy microplate reader (Biotek Inc). Three parameters were calculated on a per-plate basis: (a) the signal-to-background ratio (S/B); (b) the coefficient for variation [CV; CV=(standard deviation/mean)×100)] for all compound test wells; and (c) the Z′-factor [31]. Nominally active compounds from the pilot screen were determined using mean plus 3 times the standard deviation (Mean+3SD) was used as the cut-off.

[4] = Brain levels after i.p. injection (LC-MS); type: in vivo, mouse
Experimental: (3). Since blood brain barrier (BBB) is the main obstacle for drug development for any CNS disorders, we first wanted to verify whether compound THPI-244 enters the brain. We followed protocols exactly as published previously from our laboratory (Hayes, C D et al., 2013, BMC Med. 26, 11.81). […] We generated a standard graph (FIG. 1.4 (middle)) to be used in the quantitation of THPI-244 in the brain after intraperitoneal (i.p.) injections at 0.2 mg/kg body weight.

[5] = i.p. 0.2 mg/kg body weight, mouse

SMILES: O=C(Cc1ccccc1)N[C@H](CNc1nc(CN2CCN(C(=O)Cc3ccccc3)CC2)cs1)c1ccccc1 [THPI-244]
- levels of APP-FL ([1]; CHO cells, Western blot): no change
- increase of sAPPα over untreated control cells ([1]; as low as 10 nM, 7WD10 supernatants): 2 fold
- Kd (TrkA receptors): 5.2 µM
- % sAPPα ↑ (sAPPα): 257%
- increase of TrkA (TrkA): 78%
- concentration from which sAPPα increase is significant [2]: 50 nM
- increase of Alpha signal (sAPPα release) [3]: ~2 fold
- amount remaining in the brain at 240 min [4, 5]: negligible amount
- time to maximum levels in the brain [4, 5]: ≤ 5 min
- blood-brain barrier passage ([4]; i.p. administration, mouse brain): passes through the blood-brain barrier
